# Source: patent US20240173329A1, “BELVARAFENIB FOR USE IN TREATMENT OF BRAIN CANCERS” (Genentech, Inc., priority 2021, published 2024)
# Read-outs that look alike come from different tables or passages of the source.
# Key:
# [1] = system: solid tumors harboring mutations in BRAF, KRAS, or NRAS genes; assay: open-label Phase Ib dose-expansion study; format: in vivo, human
# Description: In another open-label, Phase Ib, dose-expansion study, belvarafenib was evaluated at a dose of 450 mg BID in patients with solid tumors harboring mutations in BRAF, KRAS, or NRAS genes. Efficacy was analyzed for 59 of 63 subjects who had at least 1 dose of belvarafenib after enrollment and had at least 1 post-baseline tumor assessment. BORR was 11.86% (7/59 subjects), ORR was 6.78% (4/59 subjects) with PR as confirmed best overall response (3 subjects with melanoma and a subject with CRC). […] Fifty (84.75%) of 59 subjects developed an event (progression of disease or death), all of which were reported as PD except 1 death case. In addition, median progression-free survival (PFS) was 7.83 weeks and the 95% confidence interval for the median was [7.26 weeks, 8.26 weeks]. Median duration of response (DOR) of a total response in this study was 15.66 weeks from 7 responders.
# [2] = Pharmacokinetic profile and brain distribution in rats after oral administration; format: in vivo, rats (SD); settings: for Kp / Cmax / Tmax / AUC(0-t) / MRT last / half-life / AUC(0-inf): rat
# Description: Example 2 evaluated pharmacokinetic profile and brain distribution of belvarafenib in rats after oral administration.
# The rat strain was SD supplied by Orient Bio Inc., Korea.
# The rats were kept in conventional animal lab cages for 5 days for acclimation before the start of the experiment. The cages were polysulfone 1291H (W425×D266×H185 mm, Techniplast, Italy). Three rats were housed in each cage at a temperature of 22±2° C., a relative humidity of 50±20%, a ventilation frequency of 10-15 times/h, a 12 hour light/dark cycle, a light intensity of 150-300 Lux, at least weekly cage replacement. The mice were fed Picolab Rodent diet (5053, Lab Diet, USA) with abundant tap water.
# The rats were dosed with belvarafenib dihydrochloride, 99.6% purity, that was stored at room temperature. Dosing was based on active ingredient free base and was corrected for assay and water content. The dosing vehicle was DMSO (10%), PEG 400 (50%), and deionized water (40%). Belvarafenib for dosing (169.51 mg) was dissolved in 86.93 mL of the vehicle for a final concentration of 1.950 mg/mL.
# In a single one day dosing regimen, rats were fasted overnight. The body weight of the rats was measured on the day of treatment, from which dosing volumes were set. […] The rats were fed 4 hours post-dose.
# Blood (0.3 mL) was collected from the abdominal artery at 0.5, 1, 2, 4, 7, 24, 48, and 72 hours after belvarafenib administration. Plasma was obtained by centrifugation at 12,000 rpm for 2 minutes (Eppendorf) and then harvested and stored at −20° C. (Panasonic, MDF-U334-PK) until analysis.
# After bloodletting of rats at each time point, the brain was collected immediately without perfusion. Brain tissue was washed one to two times with saline to remove surface blood. The brains were then trimmed. The collected brain tissue was accurately weighed and mixed with 4-fold saline based on brain weight (a final dilution factor of 5-fold). Each brain sample was then homogenized and placed in a 1.5 mL tube and stored at −20° C. (Panasonic, MDF-U334-PK) until analysis.
# Plasma and brain of untreated animals were similarly obtained for use as a blank matrix.
# Plasma and brain concentrations of belvarafenib determined by analysis using LC-MS/MS (Waters UPLC H-Class/Xevo TQ (Waters USA)).
# Pharmacokinetic parameters of belvarafenib were calculated from plasma and brain concentration-time data by a non-compartmental method using Phoenix™ WinNonlin 8.1 (Certara, USA). The peak plasma and brain concentration (Cmax) and the corresponding time (Tmax) were directly obtained from the raw data. The area under the plasma curve (AUClast) was obtained by linear-log trapezoidal summation. Other PK parameters such as AUC from dosing time extrapolated to infinity (AUCinf), half-life (t1/2) and mean residence time (MTRlast) were calculated using WinNonlin. The plasma and brain concentrations of belvarafenib were presented as MEAN±S.D. The brain to plasma (B/P) ratio of Belvarafenib was calculated by dividing AUClast in the brain by AUClast in the plasma.
# [3] = SD (Sprague-Dawley), oral 30 mg/kg, brain
# [4] = SD (Sprague-Dawley), oral 30 mg/kg, plasma
# [5] = male, SD, oral 15 mg/kg, plasma
structure (smiles),measurement,setting,value
"Cc1ccc2c(Nc3cccc(Cl)c3F)nccc2c1NC(=O)c1csc2c(N)ncnc12 [Belvarafenib, 4-amino-N-(1-((3-chloro-2-fluorophenyl)amino)-6-methylisoquinolin-5-yl)thieno[3,2-d]pyrimidine-7-carboxamide]",Disease control,[1]; 450 mg BID,35.59%
same,ORR,[1]; 450 mg BID,6.78%
same,median progression-free survival (PFS),[1]; 450 mg BID,7.83 weeks
same,subjects who developed an event (progression of disease or death),[1]; 450 mg BID,84.75%
same,Median duration of response (DOR),"[1]; 450 mg BID, 7 responders",15.66 weeks
same,BORR,"[1]; 450 mg BID, 59 evaluable subjects",11.86%
same,Median DOR,[1]; 2 BRAF-mutant melanoma responders,22.49 weeks
same,Kp,"[2]; SD (Sprague-Dawley), oral 30 mg/kg, AUClast brain / AUClast plasma, read-out: B/P ratio",1.2
same,Cmax,[2]; [3],4880 ng/g
same,Tmax,[2]; [3],7 h
same,AUC(0-t),[2]; [4],98000 ng·h/mL
same,Cmax,[2]; [4],4150 ng/mL
same,Tmax,[2]; [4],7 h
same,Kp,"[2]; SD, oral 30 mg/kg, AUClast brain / AUClast plasma, read-out: B/P ratio",1.2
same,Tmax,"[2]; SD, oral 30 mg/kg, brain",4 h
same,Kp,"[2]; male, SD, brain/plasma, oral, 15 mg/kg, read-out: B/P",1.38
same,Kp,"[2]; male, SD, oral 15 mg/kg, AUClast brain / AUClast plasma, read-out: B/P ratio",1.38
same,Cmax,"[2]; male, SD, oral 15 mg/kg, brain",3910 ng/g
same,MRT last,"[2]; male, SD, oral 15 mg/kg, brain",15.5 h
same,Tmax,"[2]; male, SD, oral 15 mg/kg, brain",7 h
same,half-life,"[2]; male, SD, oral 15 mg/kg, brain",9 h
same,AUC(0-inf),[2]; [5],50600 ng·h/mL
same,AUC(0-t),[2]; [5],49400 ng·h/mL
same,Cmax,[2]; [5],2130 ng/mL
same,MRT last,[2]; [5],18 h
same,Tmax,[2]; [5],4 h
same,half-life,[2]; [5],12.5 h
same,AUC(0-inf),"[2]; male, SD, oral 30 mg/kg, plasma",100000 ng·h/mL
same,AUCinf,"[2]; oral 15 mg/kg, brain",68350.0 ng·h/g
same,AUClast,"[2]; oral 15 mg/kg, brain",67954.7 ng·h/g
same,AUCinf,"[2]; oral 30 mg/kg, brain",115222.3 ng·h/g
same,AUClast,"[2]; oral 30 mg/kg, brain",113670.1 ng·h/g
same,general clinical signs,"[2]; single oral 15 mg/kg, pre- and post-dosing periods",No clinical signs were observed
